These results are taken from US6808904B2, “Herbicide-tolerant protox genes produced by DNA shuffling” (priority 1994, dated 2004).

The structures appear in SMILES notation.

The experiment deals with maize protox-1 mutants. The experiment in a line: Mutant screens of maize protox-1 (pMut-3) in the E. coli system. The class given is cell-based. As to conditions: arginine 88 to cysteine; screen on this herbicide. How it is done: The pMut-3 plasmid was transformed into the mutator XL1-Red strain as described above and the mutated DNA was isolated and plated on a herbicide concentration (formula XVII) that was lethal to the unmutagenized pMut-3 maize protox gene. Herbicide tolerant colonies were isolated after two days at 37° C. and analyzed as described above. […] Three of these mutations correspond to amino acid changes previously shown to confer tolerance at the homologous position in the Arabidopsis protox-1 gene. Two of the three are pMzC-1Val and pMzC-1Thr, converting the alanine (GCT) at amino acid 164 (SEQ ID NO:6) to either valine ([…]) or to threonine (ACT). This position corresponds to the pAraC-1 mutations described above (see, Table 1B; sub-sequence 3). The third analogous change, pMzC-3Ser, converts the glycine (GGT) at amino acid 165 to Serine (AGT), corresponding to the AraC-3Ser mutation described above (see, Table 1B; sub-sequence 4).
Additional mutant screens performed as described earlier in this example, except using formulas XXIIIa and XXIIIb instead of XVII, identified three additional amino acid changes that confer tolerant protox enzymes. […]

As for `Cn1nc(-c2c(F)cc(Cl)c(=O)n2C)c(Cl)c1OC(F)F` [Formula XXIIIb], the “tolerance of maize enzyme Mz88Cys” value is “highly tolerant”.
